Source: patent US10807932B2, “Benzosuberene analogues and related compounds with activity as anticancer agents” (Baylor University, priority 2018, dated 2020)
“And” between values parts separate entries of the source, which are not always exact repeats. Identical values can stand only once. “Also recorded” adds a separate entry of the source.

Legend:
[1] = target: T1, purified bovine brain tubulin (Bos taurus, UniProt P81947+Q6B856); experiment: Inhibition of tubulin polymerization (turbidimetric, cell-free); type: biochemical; settings: for IC50: 10 μM tubulin, extent of polymerization after 20 min at 30° C., read-out: Inhibition of tubulin polymerization IC50 (μM) ± SD
T1 construct: purified bovine brain tubulin; from tissue; host or cells: bovine brain
Description: Inhibition of Tubulin Polymerization.
Tubulin polymerization was evaluated in 0.25 mL reaction mixtures (final volume) containing 1 mg/mL (10 μM) purified bovine brain tubulin, 0.8 M monosodium glutamate (pH 6.6), 4% (v/v) dimethyl sulfoxide, 0.4 mM GTP, and different compound concentrations. All components except GTP were preincubated for 15 min at 30° C. in 0.24 mL. The assay mixtures were cooled to 0° C., and 10 μL of 0.01 M GTP was added to each sample. Reaction mixtures were transferred to cuvettes held at 0° C. in Beckman DU-7400 and DU-7500 spectrophotometers equipped with electronic temperature controllers. The temperature was increased to 30° C., over about 30 s, and polymerization was followed turbidimetrically at 350 nm for 20 min.

[2] = system: SK-OV-3 (ovarian) cancer cell line; experiment: Sulforhodamine B (SRB) growth inhibition assay, SK-OV-3; type: cell-based, human; settings: 48 h treatment
Description: (§1) Cell Lines and Sulforhodamine B (SRB) Assay.
(§2) The sulforhodamine B (SRB) assay was used to assess growth inhibition of human cancer cells, as previously described. DU-145, SK-OV-3, and NCI-H460 cancer cell lines (obtained from ATCC) were maintained in T75 flasks (Corning) using high glucose DMEM supplemented with 10% fetal bovine serum (Gibco)/1% gentamicin sulfate for a maximum of 15 passages. For these experiments, cells were trypsinized, counted, and plated at 7000-8000 cells/well into 96-well plates (Corning) and incubated for 24 h at 37° C. in a humidified incubator in a 5% CO2 atmosphere. Compounds to be tested were dissolved in DMSO to generate a 10 mg/mL stock solution, and serial dilutions added in media to the plates. Doxorubicin (Sigma-Aldrich) and paclitaxel (Tokyo Chemical) were used as positive controls. After a 48 h treatment, the cells were fixed with trichloroacetic acid (10% final concentration), washed, dried, stained with SRB dye, washed to remove excess dye, and dried. SRB dye was solubilized, and absorbances were measured at wavelength 540 nm and normalized to values at wavelength 630 nm using an automated Biotek plate reader.

[3] = system: NCI-H460 (lung) cancer cell line; experiment: Sulforhodamine B (SRB) growth inhibition assay, NCI-H460; type: cell-based, human; settings: 48 h treatment
Description: as §1, §2

[4] = system: DU-145 (prostate) cancer cell line; experiment: Sulforhodamine B (SRB) growth inhibition assay, DU-145; type: cell-based, human; settings: 48 h treatment
Description: as §1, §2

[5] = system: PC3-DAB2IP-luc human prostate tumor xenograft; experiment: In vivo vascular disruption by dynamic bioluminescence imaging (BLI); set-up: species or system Male Copenhagen rats; settings: for vascular response by BLI light emission (in words): phosphate
Description: In Vivo Vascular Disruption.
The human prostate cancer cell line (PC3) was modified by knock down of a tumor suppressor protein PC3-DAB2IP and further modified by transfection with a firefly luciferase reporter, as described in detail previously. Male Copenhagen rats (originally from Charles River and bred at UT Southwestern) were inoculated subcutaneously with 5×10^5 PC3-DAB2IP-luc cells mixed with 30% Matrigel® in the right thigh. These rats were approximately 6 weeks old and weighed between 100-120 g on date of implantation. Tumors were allowed to grow to a diameter of at least 1 cm before treatment commenced. Three rats were treated with VDA prodrug 89 (25 mg/mL in saline) administered IP. Rat 1 received 10 mg/kg followed by 40 mg/kg 24 h later and CA4P (30 mg/kg at 20 mg/mL in saline) was administered IP as a control 4 days later. Rat 2 received a single dose of 40 mg/kg of VDA prodrug 89, and rat 3 received 80 mg/kg of 89. Bioluminescence imaging (BLI) was performed before treatment (baseline), and at 4 and 24 h after treatment using an IVIS Spectrum® (Perkin-Elmer). Briefly, anesthetized rats (breathing oxygen with 3% isoflurane, Henry Schein Inc.) were injected subcutaneously in the foreback neck region with 120 mg/kg D-luciferin sodium salt (Gold Biotechnology, St. Louis, Mo.) and imaged over a time course of about 30 min. Fresh luciferin was administered at each time point. The resulting light intensity time curves were analyzed using Living Image® Software and light emission measured for a region of interest encompassing the tumor. All animal procedures were carried out in accordance with the Guide for the Care and Use of Laboratory Animals as adopted and promulgated by the U.S. National Institutes of Health as well as the Institutional Animal Care and Use Committee approved protocols (APN 2017-102168) at the University of Texas Southwestern Medical Center.
Ultimately, VDAs will be used in vivo, and thus it is crucial to understand both efficacy of vascular disruption and potential off target toxicity in vivo. As a preliminary investigation, the extent of vascular damage was assessed in a human prostate tumor line in rats treated with the water-soluble prodrug salt 89 compared to CA4P as control. Many imaging methods have been developed to assess vascular disruption non-invasively in vivo. Dynamic bioluminescence imaging (BLI) was favored for initial validation of VDA activity since it provides a fast, non-invasive and easy method and allows comparison of repeat or sequential investigations. BLI does require the use of cells transfected to express luciferase (luc), but these are commonly available and we have used this approach extensively as have others. The human prostate cancer PC3 line was used, in which the tumor suppressor protein DAB2IP had been knocked down and luciferase introduced. BLI requires administration of luciferin substrate, which readily crosses membranes and is carried throughout the vasculature. The measurement of light emission dynamics is related to vascular delivery of the luciferin substrate, and thus it provides a measure of vascular patency. Disruption of tumor vasculature blocks delivery of the substrate and consequently results in a quantifiable decrease in bioluminescent signal.

[6] = 30 mg/kg, rats, shown previously; cited from earlier work
tubulin = experiment: Colchicine binding assay (inhibition of [3H]colchicine binding to tubulin); settings: 1.0 μM tubulin, 5.0 μM [3H]colchicine
Description: Colchicine Binding Assay.
Inhibition of [^3H]colchicine binding to tubulin was measured in 0.1 mL reaction mixtures, each containing 1.0 μM tubulin, 5.0 μM [^3H]colchicine (Perkin-Elmer), 5% (v/v) dimethyl sulfoxide, […], and components that stabilize the colchicine binding activity of tubulin (1.0 M monosodium glutamate [adjusted to pH 6.6 with HCl in a 2.0 M stock solution], 0.5 mg/mL bovine serum albumin, 0.1 M glucose-1-phosphate, 1.0 mM MgCl2, and 1.0 mM GTP). […] Reactions were stopped with 2.0 mL of ice-cold water, with the reaction mixtures being placed on ice. Each diluted sample was poured onto a stack of two DEAE-cellulose filters (GE Biomedical), followed by 3 successive 2 mL aliquots of ice-cold water. A reduced vacuum was used to remove excess water from the filters, which were washed three times with 2 mL water and placed into vials containing 5 mL of Biosafe II scintillation cocktail. Samples were counted 18 h later in a Beckman scintillation counter. Samples with inhibitors were compared to samples with no inhibitor, and percent inhibition was determined, correcting all values for the amount of radiolabel bound to the filters in the absence of tubulin.

T1 sequence (Q6B856 whole entry): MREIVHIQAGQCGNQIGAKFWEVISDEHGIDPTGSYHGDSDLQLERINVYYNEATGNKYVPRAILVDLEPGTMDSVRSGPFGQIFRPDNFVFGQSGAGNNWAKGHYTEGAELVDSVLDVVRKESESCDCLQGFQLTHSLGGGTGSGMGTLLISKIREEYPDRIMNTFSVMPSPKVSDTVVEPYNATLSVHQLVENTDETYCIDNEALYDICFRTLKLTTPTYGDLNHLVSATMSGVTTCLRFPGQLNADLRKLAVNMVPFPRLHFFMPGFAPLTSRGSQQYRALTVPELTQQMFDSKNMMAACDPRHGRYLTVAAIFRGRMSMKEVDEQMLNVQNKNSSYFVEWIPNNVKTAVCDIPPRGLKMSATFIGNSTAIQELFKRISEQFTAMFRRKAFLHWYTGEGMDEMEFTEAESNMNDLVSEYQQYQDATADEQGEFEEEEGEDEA
T1 sequence (P81947 whole entry): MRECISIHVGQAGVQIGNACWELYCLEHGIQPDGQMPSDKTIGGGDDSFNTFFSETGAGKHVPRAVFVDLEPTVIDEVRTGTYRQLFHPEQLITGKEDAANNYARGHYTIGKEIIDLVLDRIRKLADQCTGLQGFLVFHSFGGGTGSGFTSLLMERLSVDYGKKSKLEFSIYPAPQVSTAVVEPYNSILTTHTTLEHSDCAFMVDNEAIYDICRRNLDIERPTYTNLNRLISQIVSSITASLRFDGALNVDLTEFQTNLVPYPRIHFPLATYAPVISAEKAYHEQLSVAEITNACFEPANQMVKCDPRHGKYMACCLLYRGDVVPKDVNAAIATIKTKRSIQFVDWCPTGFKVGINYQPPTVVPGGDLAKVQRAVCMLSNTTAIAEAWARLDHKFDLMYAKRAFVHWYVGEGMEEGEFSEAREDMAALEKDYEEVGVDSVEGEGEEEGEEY

Structure (SMILES)	IC50 [1]	GI50 [2] [nM]	GI50 [3] [nM]	GI50 [4] [nM]	vascular response by BLI (in words) ([5]; 30 mg/kg IP, given 4 days after 89 to the same rat)	vascular shutdown (in words) [6]	% Inhibition of colchicine binding ± SD (tubulin; compound at 1 μM)	GI50 ([2]; Homo sapiens, SK-OV-3) [nM]	GI50 ([3]; Homo sapiens, NCI-H460) [nM]	GI50 ([4]; Homo sapiens, DU-145) [nM]	% Inhibition of colchicine binding ± SD (tubulin; compound at 5 μM)	inhibition of tubulin polymerization (in words) ([1]; cell-free assay)	vascular response by BLI light emission (in words) ([5]; 10 mg/kg IP, rat)	vascular response by BLI light emission (in words) ([5]; 40 mg/kg IP, 4 h, rat)	recovery of BLI signal (in words) ([5]; 40 mg/kg IP, 24 h, rat)	appearance of the rats ([5]; 40 mg/kg IP, at 48 h)	tolerability ([5]; 80 mg/kg IP, rat)	vascular disruption (in words) ([5]; 80 mg/kg IP, rat)
COc1ccc(/C=C\c2cc(OC)c(OC)c(OC)c2)cc1OP(=O)(O)O [CA4P, combretastatin A-4 phosphate, reference compound]	> 40 µM	1.19	1.94	3.23	very similar effect	extensive vascular shutdown	–	–	–	–	–	–	–	–	–	–	–	–
COc1ccc2c(c1C)CCCC(Br)=C2c1cc(OC)c(OC)c(OC)c1 [Compound 34, 8-Bromo-3-methoxy-4-methyl-9-(3,4,5-trimethoxyphenyl)-6,7-dihydro-5H-benzo[7]annulene]	4.9 ± 0.1 µM	–	–	–	–	–	35 ± 5 (1 μM) %	312	449	423	–	–	–	–	–	–	–	–
COc1ccc2c(c1O)CCCC(Br)=C2c1cc(OC)c(OC)c(OC)c1 [Compound 33, 8-Bromo-3-methoxy-9-(3,4,5-trimethoxyphenyl)-6,7-dihydro-5H-benzo[7]annulen-4-ol]	0.39 ± 0.06 µM	–	–	–	–	–	–	22.1	35.3	36.2	88 ± 1 (5 μM) %	–	–	–	–	–	–	–
CCOC(=O)c1c(OC)ccc2c1CCCC=C2c1cc(OC)c(OC)c(OC)c1 [Compound 47, Ethyl 3-methoxy-9-(3,4,5-trimethoxyphenyl)-6,7-dihydro-5H-benzo[7]annulene-4-carboxylate]	1 ± 0.07 µM	–	–	–	–	–	–	299	353	631	47 ± 1 (5 μM) %	–	–	–	–	–	–	–
COc1ccc2c(c1O)CCCC=C2c1cc(OC)c(OC)c(OC)c1 [KGP18, 3-Methoxy-9-(3,4,5-trimethoxyphenyl)-6,7-dihydro-5H-benzo[7]annulen-4-ol, reference compound]	~0.85 µM and 0.85 µM	–	–	–	–	–	73 ± 5%	0.0543	0.0418	0.0249	95 ± 0.5%	–	–	–	–	–	–	–
COc1cc(C2=CC=CCc3c2ccc(OC)c3OP(=O)([O-])[O-])cc(OC)c1OC.[Na+].[Na+] [Compound 89, Sodium 3-methoxy-9-(3,4,5-trimethoxyphenyl)-5H-benzo[7]annulen-4-yl phosphate]	16 ± 0.7 µM	–	–	–	–	–	–	15.3	29.1	23.9	45 ± 2 (5 μM) %	inactive	no vascular perturbation; also recorded: minimal change in light emission	substantial vascular shutdown; also recorded: substantially diminished light emission; also recorded: revealed vascular disruption	substantial recovery by 24 h	appeared healthy	well tolerated	did not show additional vascular disruption
